Data as given in patent publication US4853467A, “Nitrogen containing derivatives of epipodophyllotoxin glucosides” (Bristol-Myers Company, priority 1987, dated 1989).
Values after ≈ are worked out from the molar mass of the structure shown. Counter-ions that a name gives are not always drawn.

Assays:
P388 murine leukemia = experiment: P388 Leukemia, antitumor activity against murine P388 leukemia; format: in vivo, murine (female CDF1 mice); details: i.p. on days 5 and 8; 10^6 P388 cells i.p.; maximum effect over doses; >=125 considered significant; etoposide values in parentheses are positive control in same experiment
Description: Female CDF1 mice were implanted intraperitoneally with a tumor inoculum of 10^6 ascites cells of P388 murine leukemia and treated with various doses of a test compound; four mice were used for each dose level and ten were used as saline-treated control. The compounds were administered by intraperitoneal injection on days 5 and 8 (day 1 being the day of tumor implantation). Antitumor activity was expressed as % T/C which is the ratio of the median survival time (MST) of drug-treated group to the MST of saline-treated control group. A compound showing a % T/C value of 125 or greater is generally considered to have significant antitumor activity in the P388 test. The experiment lasted 31 days at the end of which time the number of survivors was noted. Table I presents the results of the above-described evaluation; only the maximum % T/C and the dose showing the maximum effect are reported.

HCT/VM34 = experiment: In vitro cytotoxicity assay, HCT/VM34 teniposide-resistant human colon tumor; format: cell-based; details: HCT/VM34, resistant to teniposide, two values per compound, four-fold serial dilution; for IC50: Homo sapiens
Description: (§1) The in vitro cytotoxicity assay involved growing various mammalian tumor cells, including human tumor cells, on microtitre plates employing established tissue culture methods. The concentration of each compound required to inhibit cell growth by 50% (IC50) was then determined by a four-fold serial dilution technique. The validity of the method has been supported by a report published in the "Proceedings of the American Association for Cancer Research", 1984, 25:1891 (Abst. No. 328). Tumor cells of the following types were employed for each compound tested: B16-F10 murine melanoma; Moser human colon; SW900 human lung and three human colon tumor cell lines namely HCT-116, HCT-VM, and HCT-VP, the latter two being resistant to teniposide (VM) and etoposide (VP), respectively. IC50 values less than 500 μg/ml are a positive indicator of antitumor activity. Table II presents IC50 values of various compounds of the present invention against the aforementioned cell lines.

B16-F10 murine melanoma = experiment: In vitro cytotoxicity assay, B16-F10 murine melanoma; format: cell-based; details: two values per compound, four-fold serial dilution; for In vitro cytotoxicity IC50, B-16-F10: B16-F10 murine melanoma; for IC50: Mus musculus, B16-F10, B16-F10 murine melanoma, read-out: In vitro cytotoxicity IC50, B-16-F10
Description: as §1

HCT-116 = experiment: In vitro cytotoxicity assay, HCT-116 human colon tumor; format: cell-based; details: two values per compound, four-fold serial dilution; for In vitro cytotoxicity IC50, HCT-116: HCT-116 human colon; for IC50: Homo sapiens, HCT-116, HCT-116 human colon
Description: as §1

HCT/VP35 = experiment: In vitro cytotoxicity assay, HCT/VP35 etoposide-resistant human colon tumor; format: cell-based; details: two values per compound, four-fold serial dilution; for In vitro cytotoxicity IC50, HCT/VP35: HCT/VP35, resistant to etoposide; for IC50: Homo sapiens, HCT/VP35, HCT/VP35, resistant to etoposide
Description: as §1

SW900 human lung = experiment: In vitro cytotoxicity assay, SW900 human lung; format: cell-based; details: Homo sapiens, SW900, SW900 human lung; two values per compound; four-fold serial dilution
Description: as §1

Moser human colon = experiment: In vitro cytotoxicity assay, Moser human colon; format: cell-based; details: two values per compound, four-fold serial dilution; for IC50: Homo sapiens
Description: as §1

Row | Structure (SMILES) | Max % T/C (ratio of median survival time of drug-treated group to saline-treated control group) (P388 murine leukemia) [%] | In vitro cytotoxicity IC50, HCT/VM34 (HCT/VM34) [mg/L] | IC50 (HCT/VM34) [mg/L] | In vitro cytotoxicity IC50, B-16-F10 (B16-F10 murine melanoma) [mg/L] | IC50 (B16-F10 murine melanoma) [mg/L] | In vitro cytotoxicity IC50, HCT-116 (HCT-116) [mg/L] | IC50 (HCT-116) [mg/L] | In vitro cytotoxicity IC50, HCT/VP35 (HCT/VP35) [mg/L] | IC50 (HCT/VP35) [mg/L] | IC50 (SW900 human lung) [mg/L] | IC50 (Moser human colon) [mg/L] | In vitro cytotoxicity IC50, MOSER (Moser human colon) [mg/L]
1 | CON=C1C=C([C@@H]2c3cc4c(cc3[C@@H](O[C@@H]3O[C@@H]5CO[C@@H](C)O[C@H]5[C@H](O)[C@H]3O)[C@H]3COC(=O)[C@@H]32)OCO4)C=C(OC)C1=O [Example 1, Etoposide-ortho-quinone-3'-O-methyloxime] | 200 | – | – | – | – | – | – | – | – | – | – | –
2 | COC1=CC([C@@H]2c3cc4c(cc3[C@@H](O[C@@H]3O[C@@H]5CO[C@@H](C)O[C@H]5[C@H](O)[C@H]3O)[C@H]3COC(=O)[C@@H]32)OCO4)=CC(=NOCc2ccccc2)C1=O [Example 2, Etoposide-ortho-quinone-3'-O-benzyloxime] | 242 | – | – | – | – | – | – | – | – | – | – | –
3 | COc1cc([C@@H]2c3cc4c(cc3[C@@H](O[C@@H]3O[C@@H]5CO[C@@H](C)O[C@H]5[C@H](O)[C@H]3O)[C@H]3COC(=O)[C@H]23)OCO4)cc(N)c1O [Example 3, 3'-Amino-3'-desmethoxy etoposide] | 228 | – | – | – | – | – | – | – | – | – | – | –
4 | COc1cc([C@@H]2c3cc4c(cc3[C@@H](O[C@@H]3O[C@@H]5CO[C@@H](C)O[C@H]5[C@H](O)[C@H]3O)[C@H]3COC(=O)[C@H]23)OCO4)cc(NC(C)=O)c1O [Example 7, 3'-Acetylamino-3'-desmethoxy etoposide] | 135 | 65 | 63 (≈ 102 µM) | 63 | 54 (≈ 87.7 µM) | 63 | 60 (≈ 97.5 µM) | 83 | 90 (≈ 146 µM) | – | – | –
5 | COc1cc([C@@H]2c3cc4c(cc3[C@@H](O[C@@H]3O[C@@H]5CO[C@@H](C)O[C@H]5[C@H](O)[C@H]3O)[C@H]3COC(=O)[C@H]23)OCO4)cc(NC(=O)NCCCl)c1O [Example 10, 3'-[(2-Chloroethylamino)carbonyl]amino-3'-desmethoxy etoposide] | 110 | 100 | 81 (≈ 119 µM) | 87 | 57 (≈ 83.9 µM) | 78 | 71 (≈ 105 µM) | 106 | 92 (≈ 135 µM) | – | – | –
6 | COc1cc([C@@H]2c3cc4c(cc3[C@@H](O[C@@H]3O[C@@H]5CO[C@@H](C)O[C@H]5[C@H](O)[C@H]3O)[C@H]3COC(=O)[C@H]23)OCO4)cc(NS(C)(=O)=O)c1O [Example 12, 3'-Desmethoxy-3'-methanesulfonamido etoposide] | 150 | – | – | 54 | 61 (≈ 93.6 µM) | 62 | 54 (≈ 82.9 µM) | 132 | 88 (≈ 135 µM) | > 188 | – | –
7 | COc1ccc(C=Nc2cc([C@@H]3c4cc5c(cc4[C@@H](O[C@@H]4O[C@@H]6CO[C@@H](C)O[C@H]6[C@H](O)[C@H]4O)[C@H]4COC(=O)[C@H]34)OCO5)cc(OC)c2O)cc1 [Example 20, 3'-Desmethoxy-3'-[[(4-methoxy)phenyl]methylene]amino etoposide] | 175 | – | – | 19.8 | 13.3 (≈ 19.2 µM) | 5.6 | 9.6 (≈ 13.9 µM) | 61 | 35 (≈ 50.6 µM) | – | – | –
8 | COc1cc([C@@H]2c3cc4c(cc3[C@@H](O[C@@H]3O[C@@H]5CO[C@@H](C)O[C@H]5[C@H](O)[C@H]3O)[C@H]3COC(=O)[C@H]23)OCO4)cc(N=Cc2cc(OC)c(OC)c(OC)c2)c1O [Example 21, 3'-Desmethoxy-3'-[[(3,4,5-trimethoxy)phenyl]methylene]amino etoposide] | 225 | 10.6 | 14 (≈ 18.6 µM) | 4.3 | 5.3 (≈ 7.05 µM) | – | – | 15.6 | 26 (≈ 34.6 µM) | – | 25 (≈ 33.3 µM) | 27
9 | COc1cc([C@@H]2c3cc4c(cc3[C@@H](O[C@@H]3O[C@@H]5CO[C@@H](C)O[C@H]5[C@H](O)[C@H]3O)[C@H]3COC(=O)[C@H]23)OCO4)cc([N+]#N)c1[O-] [Example 25, 3'-Desmethoxy-3'-diazonium etoposide hydroxide inner salt] | 240 | 43 | 38 | 25 | 29 | 38 | 24 | 102 | 78 | – | – | –
10 | COc1cc([C@@H]2c3cc4c(cc3[C@@H](O[C@@H]3O[C@@H]5CO[C@@H](C)O[C@H]5[C@H](O)[C@H]3O)[C@H]3COC(=O)[C@H]23)OCO4)cc2ncoc12 [Example 27, Etoposide benzoxazole derivative] | 165 | 10.6 | 14 (≈ 24 µM) | 4.3 | 5.3 (≈ 9.08 µM) | – | – | 15.6 | 26 (≈ 44.6 µM) | – | 25 (≈ 42.8 µM) | 27
11 | CC(=O)NC1=CC([C@@H]2c3cc4c(cc3[C@@H](O[C@@H]3O[C@@H]5CO[C@@H](C)O[C@H]5[C@H](O)[C@H]3O)[C@H]3COC(=O)[C@@H]32)OCO4)=CC(=O)C1=O [Example 28, 5'-Desmethoxy-5'-acetylamino etoposide 3',4'-orthoquinone] | 125 | 64 | 58 (≈ 96.7 µM) | 81 | 72 (≈ 120 µM) | 68 | 66 (≈ 110 µM) | 70 | 84 (≈ 140 µM) | – | 87 (≈ 145 µM) | 71
